Columns and labels:
Type in all cases: cell-based
[1] = system: Preadipocyte cell line 3T3-L1; assay: Induction of differentiation into adipocytes, determined as amount of biosynthesis of triglyceride; conditions: positive control, 4 μl then 2 μl of a 5 mg/ml aqueous solution per 2 ml well
Excerpt: There have been known that insulin enhances induction of differentiation of preadipocytes into adipocytes, and that glucose uptake takes place in matured adipocytes thereby accumulating triglyceride in the adipocytes (J. Biol. Chem., Vol. 253, No. 20, P7570-7578 (1978)). Specifically, utilizing this method, an insulin-mimetic action of a test substance can be determined by administering a test substance in place of insulin, and determining differentiation into an adipocyte and the amount of triglyceride in the adipocytes.
The induction of differentiation into adipocytes was carried out by partially modifying the above-mentioned method of Rubin C. S. et al. (J. Biol. Chem., Vol. 253, No. 20, P7570-7578 (1978)). Preadipocyte cell line 3T3-L1 (ATCC CCL-92.1) was suspended in a 10% fetal bovine serum (manufactured by GIBCO)-containing Dulbecco's modified Eagle's medium (manufactured by Sigma, D6046) containing 200 μM ascorbic acid (hereinafter referred to as A-D-MEM medium) so as to have a density of 4×10^3 cells/ml, and the suspension was put in each well of a 12-well microtiter plate in an amount of 2 ml per well. The cells were cultured at 37° C. for 7 days in the presence of 5% carbon dioxide gas. […]
The amount of triglyceride in the adipocytes was determined as an index for inducing differentiation into matured adipocytes, and as evaluation of insulin-mimetic action. […]

[2] = system: mature adipocytes (3T3-L1 cells); assay: Enhancing action on glucose uptake: 2-deoxy-[1,2-3H(N)]-glucose uptake into mature adipocytes; conditions: positive control, final concentration 1 μg/mL, added when 45 minutes passed; vs negative control
Excerpt: In addition, there have been known that insulin has an enhancing action on glucose uptake into a cell, and that glucose uptake into the cell is enhanced by the action of insulin in a matured adipocyte (J. Biol. Chem., Vol. 253, No. 20, P7579-7583 (1978)). Specifically, utilizing this method, an insulin-mimetic action of a test substance can be determined by administering a test substance in place of insulin, and determining the amount of glucose uptake into a matured adipocyte.
The induction of differentiation into mature adipocytes was carried out by partially modifying the method of Rubin C. S. et al. 3T3-L1 cells were suspended in a 10% fetal bovine serum-containing Dulbecco's modified Eagle's medium (manufactured by Sigma, D6046) containing 200 μM ascorbic acid so as to have a density of 4×10^3 cells/ml, and the suspension was put in each well of a 12-well microtiter plate in an amount of 2 ml per well. The cells were cultured at 37° C. for 7 days in the presence of 5% carbon dioxide gas. […]
As the evaluation of enhancing action on glucose uptake, and also as the evaluation of insulin-mimetic action, the amount of 2-deoxyglucose uptake into mature adipocytes stimulated with the sample (the above-mentioned extract fraction from Corchorus olitorius) in the adipocytes was determined. […]

[3] = system: mature adipocytes (3T3-L1 cells); assay: Synergistic action of ethanol extract fraction and low-concentration insulin to enhance glucose uptake; conditions: insulin alone, final concentration 0.01 μg/mL, 30 minutes; vs negative control
Protocol: As the evaluation of synergistic action of the ethanol extract fraction from Polygonum hydropiper prepared in Example 15 and a low-concentration insulin to enhance glucose uptake, the amount of 2-deoxyglucose uptake into mature adipocytes stimulated with the sample (the above-mentioned extract fraction from Polygonum hydropiper and insulin) was determined partly in accordance with the method described in Example 17. The mature adipocytes were prepared in accordance with the method described in Example 3.
After the termination of the culture, the medium was removed, and the cells were washed twice with a 0.1% (w/v) bovine serum albumin-containing Dulbecco's modified Eagle's medium. Thereafter, the cells were cultured overnight at 37° C. in the presence of 5% carbon dioxide gas. After the overnight culture, the cells were washed twice with a HEPES buffered saline (140 mM NaCl, 5 mM KCl, 2.5 mM MgSO4, 1 mM CaCl2, 20 mM HEPES-Na (pH 7.4)). The amount 0.9 mL of the same buffer was added thereto, and the cells were cultured at 37° C. for 45 minutes. […] Thereafter, 2-deoxy-[1,2-3H(N)]-glucose taken into the adipocytes was determined in the same manner as the method described in Example 3.

[4] = system: mature adipocytes (3T3-L1 cells); assay: Glucose uptake enhancement inhibited by cytochalasin B (glucose transporter inhibitor)
Protocol: The influence of cytochalasin B on 2-deoxyglucose uptake into mature adipocytes stimulated with the sample in the adipocytes was tested in accordance with the method described in Example 17 on whether or not the enhancing action of the ethanol extract fraction from Polygonum hydropiper obtained in Example 15 on glucose uptake is inhibited by cytochalasin B, which is an inhibitor of a glucose transporter.
Specifically, as a sample, there was set a group with addition of a dimethyl sulfoxide solution of the ethanol extract fraction from Polygonum hydropiper so as to have a final concentration of 0.05% to a well (treatment for a short period of time). There were set a group without addition of the sample as a negative control, and a group with addition of insulin so as to have a final concentration of 1 μg/mL as a positive control. Furthermore, in each group, there was set a group with addition of cytochalasin B (manufactured by Nacalai Tesque, Inc., 10435-81) so as to have a final concentration of 40 μM at the same time as the time of addition of insulin or the sample. Thereafter, the amount of 2-deoxy-[1,2^3H(N)]-glucose taken into the adipocytes was determined in the same manner.

Compound	induction of triglyceride biosynthesis (differentiation into adipocytes) [1]	enhancement of 2-deoxy-[1,2-3H(N)]-glucose uptake [2]	enhancement of 2-deoxy-[1,2-3H(N)]-glucose uptake [3]	enhancement of 2-deoxy-[1,2-3H(N)]-glucose uptake ([4]; positive control, final concentration 1 μg/mL, without cytochalasin B, vs negative control)	effect on 2-deoxy-[1,2-3H(N)]-glucose uptake ([4]; cytochalasin B 40 μM added at the same time as insulin or sample, in every group)
insulin	induction of triglyceride biosynthesis could be also confirmed	enhancement of 2-deoxy-[1,2^3H(N)]-glucose uptake was found	enhancement of 2-deoxy-[1,2^3H(N)]-glucose uptake was found	enhancement of 2-deoxy-[1,2^3H(N)]-glucose uptake was found	–
C=C1[C@@H](C)[C@H]2[C@H](Cc3ccccc3)NC(=O)[C@]23OC(=O)/C=C/[C@H](O)CCC[C@@H](C)C/C=C/[C@H]3[C@@H]1O [cytochalasin B]	–	–	–	–	almost completely inhibited

— patent US20060216362A1, “Remedy” (priority 2003, published 2006)
